Measurements from US5486515A, “2-fluoroalkyl-1,4-benzoxaxines as potassium channel mediators” (Zeneca Limited, priority 1993, dated 1996).
Where two headings read alike, the source gives them in different places.

Experiments:
detrusor smooth muscle = test: second in vitro test: relaxation of guinea pig detrusor strips contracted with 80 mM KCl; assay type: cell-based; conditions: for potency in the second test relative to the first test: 80 mM KCl vs 15 mM KCl; for relaxation and reduction of the myogenic activity of guinea pig detrusor strips: second test, calcium channel blockers
Protocol: This second in vitro test is similar to the one described above with regard to tissue preparation and data acquisition. However, the following exceptions are noted. In this second test, the contraction of the detrusor strips during priming and after the equilibration period is achieved with 80 mM instead of 15 mM KCl (total concentration in the bath).

[1] = test system: bladder detrusor smooth muscle; test: first in vitro test: relaxation of guinea pig bladder detrusor strips contracted with 15 mM KCl; assay type: cell-based, Male albino Hartley guinea pigs; conditions: for relaxation and reduction of the myogenic activity of guinea pig detrusor strips: first test, calcium channel blockers; for IC50: Cavia porcellus
Protocol: Male albino Hartley guinea pigs (450-500 g) are sacrificed by carbon dioxide induced asphyxiation and quickly exsanguinated. The lower abdominal cavity is opened and the urinary bladder isolated. […] The solution is warmed to 37° C. and gassed with 95% O2 and 5% CO2. With vigorous bubbling, the solution should have a pH value close to 7.4.
The dome of the washed bladder is cut off and discarded; the remaining bladder is placed on a gauze in a Petri dish containing the buffer solution. A mid-ventral longitudinal cut is made with scissors to open the bladder. The strips cut from the dome and the base edge are discarded. The remaining detrusor mid-section is cut into two horizontal strips with an approximate width of 2.0 mm. These two strips are further bisected at the mid-dorsal section, creating four strip of similar dimensions. Each strip thus contains both dorsal and ventral portions of the bladder.
The two ends of each individual strip are tied to a glass support rod and a force-displacement transducer (Grass model FR03), respectively, with 4-0 black braided silk suture.
The transducers are connected to a polygraph (Grass model 7E), which is calibrated at 5 mV/cm and the calibration checked for linearity with weights of 5 and 0.5 grams. The analog electrical output signals from the polygraph are digitized by a Modular Instrument Micro 5000 signal processing system using Biowindow Data Acquisition Software, which is run under the Microsoft OS/2 operating system with an IBM-compatible PC.
The detrusor strips on the glass rod are secured in 20 ml tissue baths and allowed to equilibrate under a preload tension of 2 grams. During the following 45 to 60 min equilibration period, the tissue is washed with fresh buffer solution at 15 min interval, with the tension adjusted, if necessary, to 2 grams prior to washing. After the equilibration period, a priming dose of 15 mM KCl (total concentration in the bath) is applied. The tissue is washed after 10 min and washed twice more at 15 min intervals with tension adjusted to 2 grams before each washing.
When the tissue relaxes to a steady state after the final washing, 15 mM KCl is again applied. Once the myogenic activity of the tissue reaches a steady state, the baseline data are acquired through the Biowindows Data Acquisition System by averaging 5 min of the myogenic data sampled at 32 Hz. Once the baseline is acquired, the experimental compounds are dosed in a cumulative manner in half log unit increments. The contact time for each dose is 10 min with the final 5 min being the period of time that the dose reponse data are required. […] The effect of the compound at each dose is expressed as % of the maximum inhibitory response, which is further normalized with respect to the corresponding effect of the compound vehicle control. The normalized response is then used to derive the IC50 of the relaxant activity of the compound through the application of Marquardt' s nonlinear iterative curve fitting technique to a standard dose-response function.

[2] = ability to relax bladder smooth muscle, comparison with non-fluorinated analogs, read-out: IC50

| SMILES | IC50 [1, 2] | relaxation and reduction of the myogenic activity of guinea pig detrusor strips (detrusor smooth muscle; 80 mM KCl) | also measured |
| --- | --- | --- | --- |
| COCCOC(=O)C1=C(C)NC(C)=C(C(=O)OC(C)C)C1c1cccc([N+](=O)[O-])c1 (stereo not drawn) [nimodipine] | – | able to relax and reduce the myogenic activity | potency in the second test relative to the first test (detrusor smooth muscle): more potent in the second test; relaxation and reduction of the myogenic activity of guinea pig detrusor strips [1]: able to relax and reduce the myogenic activity |
| COC(=O)C1=C(C)NC(C)=C(C(=O)OC)C1c1ccccc1[N+](=O)[O-] [nifedipine] | – | able to relax and reduce the myogenic activity | – |
| CC1(C)Oc2ccc(C#N)cc2C(N2CCCC2=O)C1O (stereo not drawn) [cromakalim] | – | – | relaxant activity in the second test (detrusor smooth muscle; 80 mM KCl, at concentrations as high as 30 μM): insignificant relaxant activity; IC50 ([1]; putative potassium channel opener, read-out: relaxant activity IC50 in the first test): 600 to 900 nM |
| COC(=O)C1=C(C)NC(C)=C(C(=O)OC(C)C)C1c1cccc2nonc12 (stereo not drawn) [isradipine] | – | able to relax and reduce the myogenic activity | potency in the second test relative to the first test (detrusor smooth muscle): more potent in the second test; relaxation and reduction of the myogenic activity of guinea pig detrusor strips [1]: able to relax and reduce the myogenic activity |
| COc1ccc(Cc2nccc3cc(OC)c(OC)cc23)cc1OC [papaverine] | – | – | abolition of the KCl-induced tension (detrusor smooth muscle; 80 mM KCl, 300 μM, maximum response): totally abolished |
| COc1ccc(CCN(C)CCCC(C#N)(c2ccc(OC)c(OC)c2)C(C)C)cc1OC (stereo not drawn) [verapamil] | – | able to relax and reduce the myogenic activity | potency in the second test relative to the first test (detrusor smooth muscle): more potent in the second test; relaxation and reduction of the myogenic activity of guinea pig detrusor strips [1]: able to relax and reduce the myogenic activity |

Second part, led by results:

| IC50 [1, 2] | SMILES | relaxation and reduction of the myogenic activity of guinea pig detrusor strips (detrusor smooth muscle; 80 mM KCl) | also measured |
| --- | --- | --- | --- |
| 2250 nM | O=S(=O)(c1ccccc1)c1ccc2c(c1)N(c1cccc[n+]1[O-])CC(CF)(CF)O2 [Example 5, 2-(2,2-(bis)Fluoromethyl-6-phenylsulfonyl-3,4-dihydro-2H-1,4-benzoxazine-4-yl)pyridine-N-oxide] | – | – |
| 7 nM | O=[N+]([O-])c1ccc2c(c1)N(c1cccc[n+]1[O-])CC(C(F)F)(C(F)F)O2 [Example 8, 2-(2,2-bis(Difluoromethyl)-6-nitro-3,4-dihydro-2H-1,4-benzoxazine-4-yl)pyridine-N-oxide] | – | – |
| 25 nM | O=[N+]([O-])c1ccc2c(c1)N(c1cccc[n+]1[O-])CC(CF)(CF)O2 [Example 4, 2-(2,2-(bis)Fluoromethyl-6-nitro-3,4-dihydro-2-H-1,4-benzoxazine-4-yl)pyridine-N-oxide] | – | – |
| 74 nM | CC1(C)CN(c2cccc[n+]2[O-])c2cc([N+](=O)[O-])ccc2O1 [@] | – | – |
| 4100 nM | CC1(C)CN(c2cccc[n+]2[O-])c2cc(S(=O)(=O)c3ccccc3)ccc2O1 [*] | – | – |
| 360 nM | O=S(=O)(c1ccccc1)c1ccc2c(c1)N(c1cccc[n+]1[O-])CC(C(F)F)(C(F)F)O2 [Example 6, 2-(2,2-bis(Difluoromethyl)-6-phenylsulfonyl-3,4-dihydro-2H-1,4-benzoxazine-4-yl)pyridine-N-oxide] | – | – |
| 540 nM | CC1(C(F)(F)F)CN(c2cccc[n+]2[O-])c2cc(S(=O)(=O)c3ccccc3)ccc2O1 (stereo not drawn) [Example 1, 2-(2-Methyl-2-trifluoromethyl-6-phenylsulfonyl-3,4-dihydro-2H-1,4-benzoxazin-4-yl)pyridine-N-oxide] | – | IC50 ([1]; guinea pig detrusor strips, read-out: IC50 (50% decrease in the in vitro contraction of the bladder tissue)): 540 nM |
